# Peptide text beside a SMILES is read from it.
# Tests used:
# [1] = tested on: Bacillus subtilis CMCC 63501; format: cell-based; details: CMCC 63501, 18 h
# Method: (§1) The peptide antibacterial activity was determined against both gram-positive and gram-negative bacteria strains, including Escherichia coli ATCC 25922, Escherichia coli UB1005, Salmonella enterica serovar typhimurium C77-31, Staphylococcus aureus ATCC 29213, Staphylococcus aureus ATCC 25923, Bacillus subtilis CMCC 63501, and Staphylococcus epidermidis ATCC 12228. Clinically isolated Escherichia coli EC183 was provided by the 4th Affiliated Hospital of Harbin Medical University. MIC of the peptides was measured using a modified version of the National Committee for Clinical Laboratory Standards (NCCLS) broth microdilution method as described previously. The bacterial strains were inoculated and grown to mid-log phase in fresh Mueller-Hinton broth (MHB) at 37 °C. Bacterial inoculum suspensions were prepared at a final concentration of approximately 1 × 10^5 CFU/ml. Peptides were 2-fold serially diluted to make different concentrations, from 0.5 to 256 μM. Equal volumes of inoculum suspensions were then added to each well of a sterile 96-well plate with different concentrations of peptides, and the plate was incubated for 18 h at 37 °C. Broth with or without bacteria was employed as the positive control or the negative control, respectively. MIC was defined as the lowest concentration of peptides that prevented visible turbidity by visual inspection. […] After overnight incubation at 37 °C, MBC was defined as the lowest concentration of peptides that killed at least 99.9% of the initial inoculums. Experiments were performed in triplicate with three biological replicates.
# [2] = tested on: Clinically isolated Escherichia coli EC183; format: cell-based; details: Clinically isolated EC183, 18 h
# Method: as §1
# [3] = tested on: Escherichia coli ATCC 25922; format: cell-based; details: ATCC 25922, 18 h
# Method: as §1
# Escherichia coli UB1005 = format: cell-based; details: UB1005, 18 h
# Method: as §1
# [4] = tested on: Salmonella enterica serovar typhimurium C77-31; format: cell-based; details: three independent experiments
# Method: as §1
# [5] = tested on: Staphylococcus aureus ATCC 25923; format: cell-based; details: ATCC 25923, 18 h
# Method: as §1
# [6] = tested on: Staphylococcus aureus ATCC 29213; format: cell-based; details: ATCC 29213, 18 h
# Method: as §1
# [7] = tested on: Staphylococcus epidermidis ATCC 12228; format: cell-based; details: ATCC 12228, 18 h
# Method: as §1
# [8] = tested on: Candida albicans CGMCC 2.2086; experiment: microbe, parasite or virus in culture; format: cell-based; details: CGMCC 2.2086, 48 h
# From the text: (§2) The antifungal activities were monitored in RPMI-1640 broth medium by a 2-fold microdilution assay according to the Clinical and Laboratory Standards Institute (CLSI) methods. The Candida albicans CGMCC 2.2086, Candida tropicalis CGMCC 2.1975, and Candida krusei CGMCC 2.1857 fungal strains were purchased from the China General Microbiological Culture Collection Center (CGMCC, Beijing, China). Clinically isolated Candida albicans CA2761 was provided by the 4th Affiliated Hospital of Harbin Medical University. Briefly, fungal strains were cultured on YPD agar plates (1% peptone, 0.5% yeast extract, 1% glucose and 2% agar) at 28 °C to prepare Candida suspensions with a turbidity of a 0.5 McFarland standard. A total of 50 μl inoculum cell suspension diluted in RPMI-1640 broth medium was added to an equal volume of peptide solution to achieve a final peptide concentrations ranging from 0.25 μM to 128 μM in a 96-well plate. Pure broth alone or with inoculum suspensions was used as the negative control or the positive control, respectively. The plate was incubated at 28 °C for 48 h. MIC was considered the lowest concentration at which no fungal growth was visually observed under experimental conditions. […] After 48 h incubation at 28 °C, MFC was defined as the lowest concentration of peptides that killed at least 99.9% of the initial inoculums. Experiments were performed in triplicate with three biological replicates.
# [9] = tested on: Candida krusei CGMCC 2.1857; experiment: microbe, parasite or virus in culture; format: cell-based; details: CGMCC 2.1857, 48 h
# From the text: as §2
# [10] = tested on: Candida tropicalis CGMCC 2.1975; experiment: microbe, parasite or virus in culture; format: cell-based; details: CGMCC 2.1975, 48 h
# From the text: as §2
# [11] = tested on: C. albicans CA276 (clinical isolate); experiment: microbe, parasite or virus in culture; format: cell-based, Candida albicans; details: CA276 (clinical isolate, 48 h)
# From the text: as §2
smiles,measurement,setting,value
CC[C@H](C)[C@H](NC(=O)[C@H](Cc1c[nH]c2ccccc12)NC(=O)[C@H](CCCCN)NC(=O)[C@H](CC(C)C)NC(=O)[C@@H](NC(=O)[C@H](CCCCN)NC(=O)CNC(=O)[C@@H](NC(=O)[C@H](CCCCN)NC(=O)[C@H](CCCCN)NC(=O)[C@H](CC(C)C)NC(=O)[C@H](CCCNC(=N)N)NC(=O)[C@H](CCCCN)NC(=O)[C@H](CCCNC(=N)N)NC(=O)[C@@H](NC(=O)[C@H](CCCCN)NC(=O)[C@H](CCCCN)NC(=O)[C@H](CCCNC(=N)N)NC(=O)[C@H](CC(C)C)NC(=O)[C@H](CCCNC(=N)N)NC(=O)[C@@H](N)CCCNC(=N)N)[C@@H](C)O)[C@@H](C)CC)C(C)C)C(N)=O [RI21] (H-RRLRKKTRKRLKKIGKVLKWI-NH2),MBC B. subtilis 63501,[1],4 µM
same,MIC B. subtilis 63501,[1],1 µM
same,MBC E. coli EC183,[2],2 µM
same,MIC E. coli EC183,[2],1 µM
same,MBC E. coli 25922,[3],8 µM
same,MIC E. coli 25922,[3],2 µM
same,MBC E. coli 1005,Escherichia coli UB1005,2 µM
same,MIC E. coli 1005,Escherichia coli UB1005,2 µM
same,MIC S. typhi C77-31,"[4]; broth microdilution, MHB, ~1 × 10^5 CFU/ml, 18 h at 37 °C, visual",1 µM
same,MBC S. typhi C77-31,[4]; lowest concentration killing at least 99.9% of initial inoculum,2 µM
same,MBC S. aureus 25923,[5],4 µM
same,MIC S. aureus 25923,[5],4 µM
same,MBC S. aureus 29213,[6],4 µM
same,MIC S. aureus 29213,[6],4 µM
same,MBC S. epidermidis 12228,[7],8 µM
same,MIC S. epidermidis 12228,[7],4 µM
same,MFC,[8]; read-out: MFC C. albicans 2.2086,16 µM
same,MIC,[8]; read-out: MIC C. albicans 2.2086,8 µM
same,MFC,[9]; read-out: MFC C. krusei 2.1857,4 µM
same,MIC,[9]; read-out: MIC C. krusei 2.1857,2 µM
same,MFC,[10]; read-out: MFC C. tropicalis 2.1975,2 µM
same,MIC,[10]; read-out: MIC C. tropicalis 2.1975,1 µM
same,MFC,[11],32 µM
same,MIC,[11],8 µM

# Source: paper PMC4890124, “Antimicrobial activity, improved cell selectivity and mode of action of short PMAP-36-derived peptides against bacteria and Candida” (Scientific Reports, 2016)
